The test system of data set [1] is MDA-231 breast cancer cells. The data set can be described thus: MTT cytotoxicity assay, MDA-231. The format is cell-based, human. (Tetrazolium dyes change colour on reduction, which living cells bring about.)
For data set [2], the system named is MCF-7 (human breast adenocarcinoma). The data set can be described thus: MTT cytotoxicity assay, MCF-7. The following applies: read-out: IC50 ± SD, MCF7. Type of data set: cell-based.
The test system of data set [3] is normal human dermal/fibroblasts. The data set can be described thus: MTT cytotoxicity assay, normal fibroblasts. The following applies: 72 h, read-out: IC50 ± SD, Fibro dental. The format is cell-based.
Data set [4] relates to DU145 prostate cancer cells. The data set can be described thus: MTT cytotoxicity assay, DU145. The format is cell-based, human.
In data set [5] the test system is HepG2 (hepatocellular carcinoma). The data set is described as follows: MTT cytotoxicity assay, HepG2. The format is cell-based, human. The note with it: read-out: IC50 ± SD, HEPG-2.
The test system of another data set is MCF-7 cell lines. The data set is described as follows: Dose response study, growth rate. The format is cell-based, human. The note with it: MCF-7, treatment for 24 h, tested 1–300 μg/mL.
Data set [6] concerns PC3 (human prostate carcinoma). The data set is described as follows: MTT cytotoxicity assay, PC3. The format is cell-based. The note with it: 72 h, read-out: IC50 ± SD, PC-3.
Setting [7] is: Homo sapiens, MDA-MB-231, read-out: IC50 ± SD, MDA-231.
The mark [8] stands for this setting: Homo sapiens, DU-145, read-out: IC50 ± SD, DU145.

Structures are written as SMILES. Where two headings read alike, the source gives them in different places.

Regarding `COc1cccc(C(=O)Cn2cc(CN3CCN(c4c([N+](=O)[O-])nc(C)n4Cc4ccccc4)CC3)nn2)c1` [Compound 10c, 2-(4-((4-(1-benzyl-2-methyl-4-nitro-1H-imidazole-5-yl)piperazin-1-yl)methyl)-1H-1,2,3-triazol-1-yl)-1-(3-methoxyphenyl)ethanone], the IC50 – broadly, the concentration that inhibits the measured activity by half – in data set [1] (setting [7]) was 1.38 ± 1.3 µM; in data set [2] (Homo sapiens, MCF7, 72 h) it was 585 ± 37 µM; in data set [3] (Homo sapiens, Fibroblast) it was > 500 µM; in data set [4] (setting [8]), 15 ± 1.6 µM.
With `N.N.[Cl][Pt][Cl]` [Cisplatin, reference compound], the IC50 in data set [5] (Liver cancer cells, MTT, 72 h, mean ± SD) is 9.64 ± 1.7 µM; in data set [1] (read-out: IC50 ± SD, MDA-231, Breast cancer cells, MTT, mean ± SD), 16.2 ± 1.6 µM; in data set [2] (Breast cancer cells, MTT, 72 h, mean ± SD), 14.6 ± 2.8 µM; in data set [3] (Normal cells, MTT, mean ± SD), > 100 µM; in data set [4] (read-out: IC50 ± SD, DU145, Prostate cancer cells, MTT, mean ± SD) it was 8.5 ± 1.7 µM.
Take `Cc1ccc(Cn2cc(CN3CCN(c4c([N+](=O)[O-])nc(C)n4Cc4ccccc4)CC3)nn2)cc1` [Compound 9k, 1-(N1-benzyl-2-methyl-4-nitro-imidazole-5-yl)-4-((N1-(4-methylbenzyl)-1H-1,2,3-triazol-4-yl)methyl)piperazine]: in the data set on MCF-7 cell lines, the “concentration range with cytostatic effect (GR values)” value is given as 37.5 to 1 μg/mL and the “concentration range with cytotoxic effect (GR values)” value was in the range of 75 to 300 µg/mL. For the same molecule, the half-inhibitory concentration (IC50) in data set [2] (Homo sapiens, MCF7, 72 h) stood at 5 ± 2 µM. Moreover, in data set [3] (Homo sapiens, Fibroblast), the 50% inhibitory concentration (IC50) is > 500 µM.
As to `Cc1nc([N+](=O)[O-])c(N2CCN(Cc3cn(-c4ccc5c(c4)OCO5)nn3)CC2)n1Cc1ccccc1` [Compound 11p, 1-((N1-(benzo[d] [1,3]dioxol-5-yl)-1H-1,2,3-triazol-4-yl)methyl)-4-(N1-benzyl-2-methyl-4-nitro-1H-imidazole-5-yl) piperazine], the IC50 in data set [1] (setting [7]) stood at 11.7 ± 1.6 µM; in data set [2] (Homo sapiens, MCF7, 72 h), 52 ± 30 µM; in data set [4] (setting [8]) it was 0.803 ± 0.04 µM.
With `Cc1nc([N+](=O)[O-])c(N2CCN(Cc3cn(Cc4cccc(F)c4)nn3)CC2)n1Cc1ccccc1` [Compound 9g, 1-(N1-benzyl-2-methyl-4-nitro-imidazole-5-yl)-4-((N1-(3-fluorobenzyl)-1H-1,2,3-triazol-4-yl)methyl)piperazine], in the data set with MCF-7 cell lines, the “concentration range with cytostatic effect (GR values)” value lay in the range of 1 to 300 µg/mL and the “concentration range with cytotoxic effect (GR values)” value is reported as “did not show cytotoxic effects”. Further, the 50% inhibitory concentration (IC50) in data set [2] (Homo sapiens, MCF7, 72 h) turned out to be 2 ± 0.03 µM. For the same molecule, the concentration for half-maximal inhibition (IC50) in data set [3] (Homo sapiens, Fibroblast) is > 500 µM.
As for `Cc1nc([N+](=O)[O-])c(N2CCN(Cc3cn(CC(=O)c4ccc(Br)cc4)nn3)CC2)n1Cc1ccccc1` [Compound 10b, 2-(4-((4-(1-benzyl-2-methyl-4-nitro-1H-imidazole-5-yl)piperazin-1-yl)methyl)-1H-1,2,3-triazol-1-yl)-1-(4-bromophenyl)ethanone], the IC50 in data set [1] (setting [7]) was 1.33 ± 0.9 µM; in data set [2] (Homo sapiens, MCF7, 72 h), 372 ± 30 µM; in data set [4] (setting [8]) it was 8.95 ± 1.7 µM.
Take `Cc1nc([N+](=O)[O-])c(N2CCN(Cc3cn(Cc4ccccc4Br)nn3)CC2)n1Cc1ccccc1` [Compound 9i, 1-(N1-benzyl-2-methyl-4-nitro-imidazole-5-yl)-4-((N1-(2-bromobenzyl)-1H-1,2,3-triazol-4-yl)methyl)piperazine]: the concentration for half-maximal inhibition (IC50) in data set [5] (Homo sapiens, HepG2, 72 h) is > 500 µM; in data set [6], > 500 µM; in data set [2] (Homo sapiens, MCF7, 72 h), 106 ± 12.3 µM; in data set [3] (Homo sapiens, Fibroblast), > 500 µM.
For `Cc1nc([N+](=O)[O-])c(N2CCN(Cc3cn(CC(=O)c4ccccc4)nn3)CC2)n1Cc1ccccc1` [Compound 10a, 2-(4-((4-(1-benzyl-2-methyl-4-nitro-1H-imidazole-5-yl)piperazin-1-yl)methyl)-1H-1,2,3-triazol-1-yl)-1-phenylethanone], the IC50 in data set [1] (setting [7]) was 1.15 ± 0.5 µM; in data set [2] (Homo sapiens, MCF7, 72 h) it was 112 ± 30 µM; in data set [4] (setting [8]), 3.16 ± 0.03 µM.
With `COc1cccc2c1C(=O)c1c(O)c3c(c(O)c1C2=O)C[C@@](O)(C(=O)CO)C[C@@H]3O[C@H]1C[C@H](N)[C@H](O)[C@H](C)O1` [Doxorubicin, reference compound], the IC50 in data set [5] (Homo sapiens, HepG2, 72 h) was 0.61 ± 0.05 µM; in data set [1] (setting [7]), 2.3 ± 1.3 µM; in data set [6] it was 0.62 ± 0.06 µM; in data set [2] (Homo sapiens, MCF7, 72 h), 0.64 ± 0.04 µM; in data set [3] (Homo sapiens, Fibroblast), > 100 µM; in data set [4] (setting [8]), 0.66 ± 0.04 µM.
